Reference: patent US10131652B2, “Pyrimidinyloxy benzene derivatives as herbicides” (E. I. DU PONT DE NEMOURS AND COMPANY, priority 2014, dated 2018)
Where two headings read alike, the source gives them in different places.

Columns and labels:
Assay in all cases: Test E pre-/postemergence plant response
Type in all cases: in vivo
[1] = test system: Italian ryegrass (Lolium multiflorum); details: scale 0 to 100, read-out: Plant response rating, Ryegrass, Italian; for pest or weed control at 16 g/ha: 16 g ai/ha; for pest or weed control at 31 g/ha: 31 g ai/ha; for pest or weed control at 62 g/ha: 62 g ai/ha; for pest or weed control at 125 g/ha: 125 g ai/ha
Summary of the method: (§1)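 Pre-emergence: seeds sown in silt loam soil and sprayed with test chemicals in a non-phytotoxic solvent/surfactant mix. Post-emergence: plants at 2–18 cm (1- to 4-leaf stage) in peat/vermiculite medium treated with the same formulation. Visual rating versus controls after 7–21 days, 0 (no effect) to 100 (complete control).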

[2] = test system: blackgrass (Alopecurus myosuroides); details: scale 0 to 100, read-out: Plant response rating, Blackgrass; for pest or weed control at 16 g/ha: 16 g ai/ha; for pest or weed control at 31 g/ha: 31 g ai/ha; for pest or weed control at 62 g/ha: 62 g ai/ha; for pest or weed control at 125 g/ha: 125 g ai/ha
Summary of the method: as §1

[3] = test system: canarygrass (Phalaris minor); details: scale 0 to 100, read-out: Plant response rating, Canarygrass; for pest or weed control at 16 g/ha: 16 g ai/ha; for pest or weed control at 31 g/ha: 31 g ai/ha; for pest or weed control at 62 g/ha: 62 g ai/ha; for pest or weed control at 125 g/ha: 125 g ai/ha
Summary of the method: as §1

[4] = test system: chickweed (common chickweed, Stellaria media); details: scale 0 to 100, read-out: Plant response rating, Chickweed; for pest or weed control at 16 g/ha: 16 g ai/ha; for pest or weed control at 31 g/ha: 31 g ai/ha; for pest or weed control at 62 g/ha: 62 g ai/ha; for pest or weed control at 125 g/ha: 125 g ai/ha
Summary of the method: as §1

[5] = test system: deadnettle (henbit deadnettle, Lamium amplexicaule); details: scale 0 to 100, read-out: Plant response rating, Deadnettle; for pest or weed control at 16 g/ha: 16 g ai/ha; for pest or weed control at 31 g/ha: 31 g ai/ha; for pest or weed control at 62 g/ha: 62 g ai/ha; for pest or weed control at 125 g/ha: 125 g ai/ha
Summary of the method: as §1

[6] = test system: field violet (Viola arvensis); details: scale 0 to 100, read-out: Plant response rating, Field Violet; for pest or weed control at 16 g/ha: 16 g ai/ha; for pest or weed control at 31 g/ha: 31 g ai/ha; for pest or weed control at 62 g/ha: 62 g ai/ha; for pest or weed control at 125 g/ha: 125 g ai/ha
Summary of the method: as §1

[7] = test system: galium (catchweed bedstraw, Galium aparine); details: scale 0 to 100, read-out: Plant response rating, Galium; for pest or weed control at 16 g/ha: 16 g ai/ha; for pest or weed control at 31 g/ha: 31 g ai/ha; for pest or weed control at 62 g/ha: 62 g ai/ha; for pest or weed control at 125 g/ha: 125 g ai/ha
Summary of the method: as §1

[8] = test system: lambsquarters (Chenopodium album); details: scale 0 to 100, read-out: Plant response rating, Lambsquarters; for pest or weed control at 16 g/ha: 16 g ai/ha; for pest or weed control at 31 g/ha: 31 g ai/ha; for pest or weed control at 62 g/ha: 62 g ai/ha; for pest or weed control at 125 g/ha: 125 g ai/ha
Summary of the method: as §1

[9] = test system: pigweed (Amaranthus retroflexus); details: scale 0 to 100, read-out: Plant response rating, Pigweed; for pest or weed control at 16 g/ha: 16 g ai/ha; for pest or weed control at 31 g/ha: 31 g ai/ha; for pest or weed control at 62 g/ha: 62 g ai/ha; for pest or weed control at 125 g/ha: 125 g ai/ha
Summary of the method: as §1

[10] = test system: wild radish (Raphanus raphanistrum); details: scale 0 to 100, read-out: Plant response rating, Radish, Wild; for pest or weed control at 16 g/ha: 16 g ai/ha; for pest or weed control at 31 g/ha: 31 g ai/ha; for pest or weed control at 62 g/ha: 62 g ai/ha; for pest or weed control at 125 g/ha: 125 g ai/ha
Summary of the method: as §1

[11] = test system: winter barley (Hordeum vulgare); details: scale 0 to 100, read-out: Plant response rating, Barley, Winter; for plant injury at 16 g/ha: 16 g ai/ha; for plant injury at 31 g/ha: 31 g ai/ha; for plant injury at 62 g/ha: 62 g ai/ha; for plant injury at 125 g/ha: 125 g ai/ha
Summary of the method: as §1

Fc1cccc(Oc2ncc(Br)cn2)c1-c1cc(C(F)F)no1 [Compound 145, 5-bromo-2-[2-[3-(difluoromethyl)-5-isoxazolyl]-3-fluorophenoxy]pyrimidine]
50%: pest or weed control at 62 g/ha ([1]; pre-emergence, Preemergence) | pest or weed control at 31 g/ha ([2]; pre-emergence, Preemergence)
0%: pest or weed control at 16 g/ha ([5]; pre-emergence, Preemergence)
100%: pest or weed control at 62 g/ha ([3]; pre-emergence, Preemergence) | pest or weed control at 125 g/ha ([3]; pre-emergence, Preemergence) | pest or weed control at 62 g/ha ([4]; post-emergence, Postemergence) | pest or weed control at 16 g/ha ([4]; pre-emergence, Preemergence) | pest or weed control at 31 g/ha ([4]; pre-emergence, Preemergence) | pest or weed control at 62 g/ha ([4]; pre-emergence, Preemergence) | pest or weed control at 125 g/ha ([4]; pre-emergence, Preemergence) | pest or weed control at 16 g/ha ([5]; post-emergence, Postemergence) | pest or weed control at 31 g/ha ([5]; post-emergence, Postemergence) | pest or weed control at 62 g/ha ([5]; post-emergence, Postemergence) | pest or weed control at 125 g/ha ([5]; post-emergence, Postemergence) | pest or weed control at 31 g/ha ([5]; pre-emergence, Preemergence) | pest or weed control at 62 g/ha ([5]; pre-emergence, Preemergence) | pest or weed control at 125 g/ha ([5]; pre-emergence, Preemergence) | pest or weed control at 31 g/ha ([6]; post-emergence, Postemergence) | pest or weed control at 125 g/ha ([6]; post-emergence, Postemergence) | pest or weed control at 16 g/ha ([6]; pre-emergence, Preemergence) | pest or weed control at 31 g/ha ([6]; pre-emergence, Preemergence) | pest or weed control at 62 g/ha ([6]; pre-emergence, Preemergence) | pest or weed control at 125 g/ha ([6]; pre-emergence, Preemergence) | pest or weed control at 125 g/ha ([7]; post-emergence, Postemergence) | pest or weed control at 31 g/ha ([7]; pre-emergence, Preemergence) | pest or weed control at 62 g/ha ([7]; pre-emergence, Preemergence) | pest or weed control at 125 g/ha ([7]; pre-emergence, Preemergence) | pest or weed control at 16 g/ha ([8]; pre-emergence, Preemergence) | pest or weed control at 31 g/ha ([8]; pre-emergence, Preemergence) | pest or weed control at 62 g/ha ([8]; pre-emergence, Preemergence) | pest or weed control at 125 g/ha ([8]; pre-emergence, Preemergence) | pest or weed control at 16 g/ha ([9]; post-emergence, Postemergence) | pest or weed control at 31 g/ha ([9]; post-emergence, Postemergence) | pest or weed control at 62 g/ha ([9]; post-emergence, Postemergence) | pest or weed control at 125 g/ha ([9]; post-emergence, Postemergence) | pest or weed control at 16 g/ha ([9]; pre-emergence, Preemergence) | pest or weed control at 31 g/ha ([9]; pre-emergence, Preemergence) | pest or weed control at 62 g/ha ([9]; pre-emergence, Preemergence) | pest or weed control at 125 g/ha ([9]; pre-emergence, Preemergence) | pest or weed control at 31 g/ha ([10]; post-emergence, Postemergence) | pest or weed control at 62 g/ha ([10]; post-emergence, Postemergence) | pest or weed control at 125 g/ha ([10]; post-emergence, Postemergence) | pest or weed control at 125 g/ha ([10]; pre-emergence, Preemergence)
98%: pest or weed control at 62 g/ha ([7]; post-emergence, Postemergence)
5%: pest or weed control at 16 g/ha ([1]; post-emergence, Postemergence)
35%: pest or weed control at 31 g/ha ([2]; post-emergence, Postemergence)
85%: pest or weed control at 31 g/ha ([4]; post-emergence, Postemergence) | pest or weed control at 62 g/ha ([10]; pre-emergence, Preemergence) | plant injury at 125 g/ha ([11]; pre-emergence, Preemergence)
20%: pest or weed control at 31 g/ha ([1]; pre-emergence, Preemergence)
15%: pest or weed control at 16 g/ha ([3]; post-emergence, Postemergence) | pest or weed control at 16 g/ha ([10]; pre-emergence, Preemergence) | pest or weed control at 31 g/ha ([10]; pre-emergence, Preemergence) | plant injury at 16 g/ha ([11]; post-emergence, Postemergence) | plant injury at 31 g/ha ([11]; post-emergence, Postemergence) | plant injury at 31 g/ha ([11]; pre-emergence, Preemergence)
75%: pest or weed control at 125 g/ha ([2]; pre-emergence, Preemergence) | pest or weed control at 31 g/ha ([3]; pre-emergence, Preemergence)
80%: pest or weed control at 125 g/ha ([2]; post-emergence, Postemergence) | pest or weed control at 16 g/ha ([4]; post-emergence, Postemergence)
65%: pest or weed control at 62 g/ha ([2]; post-emergence, Postemergence) | pest or weed control at 125 g/ha ([3]; post-emergence, Postemergence) | pest or weed control at 16 g/ha ([6]; post-emergence, Postemergence)
30%: plant injury at 62 g/ha ([11]; post-emergence, Postemergence) | plant injury at 62 g/ha ([11]; pre-emergence, Preemergence)
10%: pest or weed control at 31 g/ha ([1]; post-emergence, Postemergence) | pest or weed control at 16 g/ha ([1]; pre-emergence, Preemergence) | pest or weed control at 16 g/ha ([2]; pre-emergence, Preemergence) | plant injury at 16 g/ha ([11]; pre-emergence, Preemergence)
70%: pest or weed control at 125 g/ha ([1]; pre-emergence, Preemergence)
90%: pest or weed control at 62 g/ha ([6]; post-emergence, Postemergence) | pest or weed control at 16 g/ha ([8]; post-emergence, Postemergence) | pest or weed control at 31 g/ha ([8]; post-emergence, Postemergence)
60%: pest or weed control at 62 g/ha ([2]; pre-emergence, Preemergence)
40%: pest or weed control at 125 g/ha ([1]; post-emergence, Postemergence) | pest or weed control at 62 g/ha ([3]; post-emergence, Postemergence) | pest or weed control at 16 g/ha ([3]; pre-emergence, Preemergence) | plant injury at 125 g/ha ([11]; post-emergence, Postemergence)
25%: pest or weed control at 62 g/ha ([1]; post-emergence, Postemergence) | pest or weed control at 16 g/ha ([2]; post-emergence, Postemergence) | pest or weed control at 31 g/ha ([3]; post-emergence, Postemergence) | pest or weed control at 16 g/ha ([7]; pre-emergence, Preemergence)
95%: pest or weed control at 125 g/ha ([4]; post-emergence, Postemergence) | pest or weed control at 16 g/ha ([7]; post-emergence, Postemergence) | pest or weed control at 31 g/ha ([7]; post-emergence, Postemergence) | pest or weed control at 62 g/ha ([8]; post-emergence, Postemergence) | pest or weed control at 125 g/ha ([8]; post-emergence, Postemergence) | pest or weed control at 16 g/ha ([10]; post-emergence, Postemergence)
